Patent US8835617B2, “Polynucleotides encoding a human TRIM-Cyp fusion polypeptide, compositions thereof, and methods of using same” (priority 2008, dated 2014)

Assays:
HIV-1-G89V = HIV-1-G89V CA mutant vector challenge of CRFK cells; format: cell-based
Excerpt: Most HIV-1 plasmids and vectors have been described previously (Berthoux et al., 2004). pNL4-3 contains a complete infectious HIV-1 provirus. pNL4-3-R5 bears the V3 loop of the CCR5-tropic 92TH014-2 HIV-1 strain (Papkalla et al., 2002). To generate pNL4-3-GFP-IRES-Nef, enhanced green fluorescent protein (eGFP) and the ECMV (encephalomyocarditis virus) IRES (internal ribosome entry site) were inserted upstream of nef pNLΔenvGFP is pNL4-3 with an env-inactivating mutation and eGFP in place of nef. CSGW is an HIV-1 vector expressing eGFP under the control of the spleen focus forming virus (SFFV) promoter. pFUPI, was engineered from pFUW (Lois et al., 2002) and uses the ubiquitin promoter to drive expression of a puromycin resistance cassette followed by ECMV IRES-T5. pAIG uses the SFFV promoter to drive expression of T5 followed by IRES-eGFP. In pscALPS, the SFFV promoter drives expression of T5 and the human CypA promoter drives expression of eGFP. For three-component vector production, HIV-1 gag and pol were expressed using either psPAX2, p8.9NΔSB, p8.9NΔSB-G89V, or p8.9NΔSB-V86P/H87Q/I91V/M96I. p8.9NΔSB-V86P/H87Q/I91V/M96I is p8.9NΔSB with the V86P/H87Q/I91V/M96I mutation (Chatterji et al., 2005) introduced in CA. […] For biochemistry, hT5Cyps were cloned into the p3xFLAG-CMV-7.1 expression vector (Sigma) and HIV-1 CA was expressed as a GST-fusion using the EF1α promoter.

HIV-1 [1] = test system: HIV-1
Method: Since the objective was to engineer a fully human HIV-1 restriction factor, hCypA was the fused at 10 different positions along the length of hT5α (FIG. 44A).
2×10^4 adherent cells/well or 8×10^4 suspension cells/well were plated in 48-well plates (Nunc) for challenge with single-cycle GFP reporter vectors that were titered as indicated. GFP synthesis was assessed by flow cytometry 48 hrs post-infection. For spreading infection, 10^6 Jurkat cells were infected with 1 to 15 ng p24/10^6 cells of HIV-1NL4-3-GFP-IRES-Nef. Cells were split every 3 days, fixed in 0.5% paraformaldehyde/PBS, and assayed for GFP synthesis by flow cytometry. For infection of 10^6 primary CD4^+ T cells or macrophages, 15 ng p24/10^6 cells of a CXCR4- or CCR5-tropic HIV-1NL4-3 stock was used, and infection was monitored by assessing the accumulation of RT activity in the supernatant (Sayah et al., 2004). FACSCalibur, Cellquest Pro (Becton Dickinson), and FlowJo software (Treestar, Inc.) were used to record and analyze fluorescence. 1-5×10^5 events were acquired for analysis. […]
2×10^4 adherent cells/well or 8×10^4 suspension cells/well were plated in 48-well plates (Nunc) for challenge with single-cycle GFP reporter vectors that were titered as indicated. GFP synthesis was assessed by flow cytometry 48 hrs post-infection. […]

Jurkat T cells = assay: Growth and cell surface markers of transduced Jurkat T cells; details: CD4, CXCR4, CD11a, CD18, ICAM3, MHC-I
HIV-1 [2] = details: of CD45^+GFP^+ cells
Excerpt: HIV-1 infection spreads from cell to cell at high titer in complex lymphoid tissues with a specific hierarchy of T cell destruction and distinct kinetics in vivo (Douek et al., 2003). […] This mouse model takes advantage of the lack of functional B, T, and NK cells in Rag2^−/−γc^−/− mice and allows for improved engraftment of xenografts as well de novo intrathymic generation of human T cells (Baenziger et al., 2008; Mazurier et al., 1999). Briefly, CD34^+ hematopoietic stem and progenitor cells are enriched from cord blood of healthy donors by MACS and transplanted intrahepatically into irradiated, newborn Rag2^−/−γc^−/− mice (FIG. 63A). 2-4 months post-transplant, reconstitution of peripheral blood is assessed by flow cytometry, and mice with more that 5% hCD45^+ cells in peripheral blood are infected intraperitoneally (i.p.) with HIV-1 (FIG. 63A).
An aliquot of cells was maintained in culture with the subsequent addition of SCF, TPO, and Flt3L, and assessed for GFP-expression 72 hours post-transduction.
huRag2^−/−γc^−/− mice were generated as previously described^1. Briefly, fresh human cord blood was obtained with parent written informed consent from healthy full-term newborns (Department of Gynecology and Obstetrics, Ospedale San Giovanni, Bellinzona). […] Traggiai, E., et al. Development of a human adaptive immune system in cord blood cell-transplanted mice. […]

Substance | restriction of HIV-1-G89V (HIV-1-G89V) | magnitude of restriction with CypA knockdown (HIV-1 [1]; CypA KD vs Luc KD Jurkat T cells) | growth kinetics and cell surface marker levels vs control vector (Jurkat T cells) | HIV-1 restriction activity (HIV-1 [1]; in words, Jurkat T cells (b397 also THP-1 monocytes)) | Post-infection GFP^+ CD3 (HIV-1 [2]) [%]
AoT5Cyp: Aotus (owl monkey) TRIM5-cyclophilin A fusion protein [reference compound] | failed to restrict HIV-1-G89V | Equivalent results | grew with the same kinetics and expressed similar levels | – | –
hT5Cyp: human TRIM5α fused at serine 322 to human cyclophilin A, SEQ ID NO:12 | failed to restrict HIV-1-G89V | – | grew with the same kinetics and expressed similar levels | activity comparable to AoT5Cyp | 0
